The source of these data is US20240158446A1, “CYCLIC COMPOUND HAVING SELECTIVE INHIBITORY ACTION ON KRAS OVER HRAS AND NRAS” (CHUGAI SEIYAKU KABUSHIKI KAISHA, priority 2021, published 2024).

Assay [1] addresses GDP-bound NRAS wild-type protein (Homo sapiens, UniProt P01111). Kind of assay: Binding to NRAS by surface plasmon resonance (SPR), Single Cycle Kinetics. The following applies: SPR, GDP-bound NRAS wild-type protein vs GDP-bound KRAS wild-type protein. Background: SPR reads the build-up and loss of mass on a sensor chip optically.
Assay [2] concerns the target GDP-bound HRAS wild-type protein (Homo sapiens, UniProt P01112). Kind of assay: Binding to HRAS by surface plasmon resonance (SPR), Single Cycle Kinetics. The following applies: SPR, GDP-bound HRAS wild-type protein vs GDP-bound KRAS wild-type protein.
Assay [3] addresses GDP-bound KRAS wild-type protein (Homo sapiens, UniProt P01116). As to the kind of experiment: Binding to KRAS by surface plasmon resonance (SPR), Single Cycle Kinetics. The following applies: SPR Single Cycle Kinetics, GDP-bound KRAS wild-type protein, 1:1 binding model; read-out: KRAS KD.

*1 amine or outer side, *2 acyl side, *3 side chain or, on linkers, in order; H or OH if unused. Where a SMILES comes first, the peptide text is derived from it. Bridges are numbered along the chain shown (N, C = ends). [ ]: non-standard residue; d: D form. The star is where a group is joined. hPhe(3-Cl-4-CF3) = N[C@@H](CCc1ccc(C(F)(F)F)c(Cl)c1)C(=O)O; NPrPhe(4-CF3) = CCCN[C@@H](Cc1ccc(C(F)(F)F)cc1)C(=O)O; X18 = Cc1ccc(C[C@@H](C(=O)[*:2])N(CC(C)C)[*:1])cc1; X21 = Cc1ccc(C[C@@H](C(=O)[*:2])N(CC2CC2)[*:1])cc1; X46 = CCCCN([C@@H](Cc1ccc(C)cc1)C(=O)[*:2])[*:1]; NPrPhe(4-Me) = CCCN[C@@H](Cc1ccc(C)cc1)C(=O)O; X3 = CCCN([C@H](C(=O)[*:2])C1CCCC1)[*:1]; NMeGly(cPent) = CN[C@H](C(=O)O)C1CCCC1; NMeD = CN[C@@H](CC(=O)O)C(=O)O; NMeL = CN[C@@H](CC(C)C)C(=O)O; Morpholide = C1CN(*)CCO1; Ac5c = NC1(C(=O)O)CCCC1; Sar = CNCC(=O)O

Chain of GDP-bound NRAS wild-type protein (P01111 whole entry): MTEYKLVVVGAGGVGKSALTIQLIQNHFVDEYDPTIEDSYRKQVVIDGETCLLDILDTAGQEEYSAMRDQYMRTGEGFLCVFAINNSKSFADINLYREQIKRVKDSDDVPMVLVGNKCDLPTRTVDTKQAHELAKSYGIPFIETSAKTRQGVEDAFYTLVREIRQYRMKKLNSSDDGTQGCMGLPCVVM
Chain of GDP-bound KRAS wild-type protein (P01116 whole entry): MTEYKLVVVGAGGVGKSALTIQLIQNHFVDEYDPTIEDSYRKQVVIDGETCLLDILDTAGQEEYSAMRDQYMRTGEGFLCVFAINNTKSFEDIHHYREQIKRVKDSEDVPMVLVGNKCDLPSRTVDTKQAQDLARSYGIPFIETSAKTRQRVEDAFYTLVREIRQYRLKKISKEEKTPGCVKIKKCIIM
Chain of GDP-bound HRAS wild-type protein (P01112 whole entry): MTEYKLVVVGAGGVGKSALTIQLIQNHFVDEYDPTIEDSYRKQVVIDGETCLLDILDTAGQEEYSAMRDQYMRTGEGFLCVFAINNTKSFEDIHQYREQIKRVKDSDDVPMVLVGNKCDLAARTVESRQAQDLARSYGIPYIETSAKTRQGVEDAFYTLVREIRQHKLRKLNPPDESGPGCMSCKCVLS

The Kd is the equilibrium constant for the complex coming apart. Turning to `CCCN1C(=O)CN(C)C(=O)CN(C)C(=O)[C@H]([C@@H](C)CC)NC(=O)[C@H](CC(C)C)N(C)C(=O)C[C@@H](C(=O)N2CCOCC2)N(C)C(=O)[C@H](C2CCCC2)N(C)C(=O)C2(CCCC2)NC(=O)[C@@H]2CCCN2C(=O)[C@H](CCc2ccc(C(F)(F)F)c(Cl)c2)NC(=O)CN(C)C(=O)[C@@H]1Cc1ccc(C)cc1` [PP0059] ([NMeL]I[Sar][Sar][NPrPhe(4-Me)][Sar][hPhe(3-Cl-4-CF3)]P[Ac5c][NMeGly(cPent)][NMeD]-Morpholide; lactam N-11), the “NRAS/KRAS (ratio of KD value for NRAS to KD value for KRAS)” value in assay [1] was “B (a compound having 3 or more and less than 10 is denoted as B)”. In assay [2], the “HRAS/KRAS (ratio of KD value for HRAS to KD value for KRAS)” value is “C (A compound having a KD ratio of 0.1 or more and less than 3 is denoted as C)”. Also, the Kd in assay [3] amounted to 0.15 nM.
As for `CCCN1C(=O)CN(C)C(=O)CN(C)C(=O)[C@H]([C@@H](C)CC)NC(=O)[C@H](CC(C)C)N(C)C(=O)C[C@@H](C(=O)N2CCOCC2)N(C)C(=O)[C@H](C2CCCC2)N(C)C(=O)C2(CCCC2)NC(=O)[C@@H]2CCCN2C(=O)[C@H](CCc2ccc(C(F)(F)F)c(Cl)c2)NC(=O)CN(C)C(=O)[C@@H]1Cc1ccc(C(F)(F)F)cc1` [PP0060] ([NMeL]I[Sar][Sar][NPrPhe(4-CF3)][Sar][hPhe(3-Cl-4-CF3)]P[Ac5c][NMeGly(cPent)][NMeD]-Morpholide; lactam N-11), in assay [1], the “NRAS/KRAS (ratio of KD value for NRAS to KD value for KRAS)” value is “B (a compound having 3 or more and less than 10 is denoted as B)”. Further, the “HRAS/KRAS (ratio of KD value for HRAS to KD value for KRAS)” value in assay [2] is “B (a compound having 3 or more and less than 10 is denoted as B)”. The Kd in assay [3] came to 0.099 nM.
Consider `CCCN1C(=O)CN(C)C(=O)CN(C)C(=O)[C@H]([C@@H](C)CC)NC(=O)[C@H](CC(C)C)N(C)C(=O)C[C@@H](C(=O)N2CCOCC2)N(C)C(=O)[C@H](C2CCCC2)N(C)C(=O)C2(CCCC2)NC(=O)[C@@H]2CCCN2C(=O)[C@H](CCc2ccc(C(F)(F)F)c(Cl)c2)NC(=O)CN(C)C(=O)[C@@H]1C1CCCC1` [PP0061] ([NMeL]I[Sar][Sar][X3][Sar][hPhe(3-Cl-4-CF3)]P[Ac5c][NMeGly(cPent)][NMeD]-Morpholide; lactam N-11), for which the “NRAS/KRAS (ratio of KD value for NRAS to KD value for KRAS)” value in assay [1] is “B (a compound having 3 or more and less than 10 is denoted as B)”. In addition, in assay [2], the “HRAS/KRAS (ratio of KD value for HRAS to KD value for KRAS)” value was “C (A compound having a KD ratio of 0.1 or more and less than 3 is denoted as C)”. In addition, the Kd in assay [3] is 3.8 nM.
`CCCCN1C(=O)CN(C)C(=O)CN(C)C(=O)[C@H]([C@@H](C)CC)NC(=O)[C@H](CC(C)C)N(C)C(=O)C[C@@H](C(=O)N2CCOCC2)N(C)C(=O)[C@H](C2CCCC2)N(C)C(=O)C2(CCCC2)NC(=O)[C@@H]2CCCN2C(=O)[C@H](CCc2ccc(C(F)(F)F)c(Cl)c2)NC(=O)CN(C)C(=O)[C@@H]1Cc1ccc(C)cc1` [PP0062] ([NMeL]I[Sar][Sar][X46][Sar][hPhe(3-Cl-4-CF3)]P[Ac5c][NMeGly(cPent)][NMeD]-Morpholide; lactam N-11): the “NRAS/KRAS (ratio of KD value for NRAS to KD value for KRAS)” value in assay [1] was “C (A compound having a KD ratio of 0.1 or more and less than 3 is denoted as C)”. In addition, the “HRAS/KRAS (ratio of KD value for HRAS to KD value for KRAS)” value in assay [2] was “C (A compound having a KD ratio of 0.1 or more and less than 3 is denoted as C)”. For the same compound, the Kd in assay [3] was determined as 0.21 nM.
Take `CC[C@H](C)[C@@H]1NC(=O)[C@H](CC(C)C)N(C)C(=O)C[C@@H](C(=O)N2CCOCC2)N(C)C(=O)[C@H](C2CCCC2)N(C)C(=O)C2(CCCC2)NC(=O)[C@@H]2CCCN2C(=O)[C@H](CCc2ccc(C(F)(F)F)c(Cl)c2)NC(=O)CN(C)C(=O)[C@H](Cc2ccc(C)cc2)N(CC(C)C)C(=O)CN(C)C(=O)CN(C)C1=O` [PP0063] ([NMeL]I[Sar][Sar][X18][Sar][hPhe(3-Cl-4-CF3)]P[Ac5c][NMeGly(cPent)][NMeD]-Morpholide; lactam N-11): the “NRAS/KRAS (ratio of KD value for NRAS to KD value for KRAS)” value in assay [1] was “C (A compound having a KD ratio of 0.1 or more and less than 3 is denoted as C)”. In assay [2], the “HRAS/KRAS (ratio of KD value for HRAS to KD value for KRAS)” value was “C (A compound having a KD ratio of 0.1 or more and less than 3 is denoted as C)”. In addition, the Kd in assay [3] came to 2.9 nM.
With `CC[C@H](C)[C@@H]1NC(=O)[C@H](CC(C)C)N(C)C(=O)C[C@@H](C(=O)N2CCOCC2)N(C)C(=O)[C@H](C2CCCC2)N(C)C(=O)C2(CCCC2)NC(=O)[C@@H]2CCCN2C(=O)[C@H](CCc2ccc(C(F)(F)F)c(Cl)c2)NC(=O)CN(C)C(=O)[C@H](Cc2ccc(C)cc2)N(CC2CC2)C(=O)CN(C)C(=O)CN(C)C1=O` [PP0064] ([NMeL]I[Sar][Sar][X21][Sar][hPhe(3-Cl-4-CF3)]P[Ac5c][NMeGly(cPent)][NMeD]-Morpholide; lactam N-11), in assay [1], the “NRAS/KRAS (ratio of KD value for NRAS to KD value for KRAS)” value is “C (A compound having a KD ratio of 0.1 or more and less than 3 is denoted as C)”. Also, in assay [2], the “HRAS/KRAS (ratio of KD value for HRAS to KD value for KRAS)” value was “C (A compound having a KD ratio of 0.1 or more and less than 3 is denoted as C)”. Besides, the Kd in assay [3] is 0.42 nM.
